Holding throughout (type): functional
Experiment [1] relates to Proteus vulgaris. In words: Antibacterial activity against Proteus vulgaris at 100 ug/disk after 24 hr by paper disk diffusion method. Conditions: read-out: IZ. For orientation: In agar diffusion tests the substance spreads into inoculated agar from a disc or well.
In experiment [2] the test system is Shigella flexneri. In words: Antibacterial activity against Shigella flexneri after 24 hr by agar streak dilution method.
Experiment [3] deals with Shigella flexneri. Briefly: Antibacterial activity against Shigella flexneri at 100 ug/disc after 24 hr by paper disk diffusion method. The note with it: read-out: IZ.
For experiment [4], the system named is Salmonella typhi. In words: Antibacterial activity against Salmonella enterica subsp. enterica serovar Typhi after 24 hr by agar streak dilution method.
Experiment [5] has as its system Aspergillus niger. Briefly: Antifungal activity against Aspergillus niger after 48 hr by agar streak dilution method.
Experiment [6] has as its system Proteus vulgaris. In words: Antibacterial activity against Proteus vulgaris after 24 hr by agar streak dilution method.
The subject of experiment [7] is Aspergillus clavatus. In words: Antifungal activity against Aspergillus clavatus after 48 hr by agar streak dilution method.
Experiment [8] concerns Staphylococcus aureus. Briefly: Antibacterial activity against Staphylococcus aureus after 24 hr by agar streak dilution method.
Experiment [9] deals with Aspergillus clavatus. In words: Antifungal activity against Aspergillus clavatus at 100 ug/disc after 48 hr by paper disk diffusion method. Conditions: read-out: IZ.
For experiment [10], the system named is Bacillus subtilis. Briefly: Antibacterial activity against Bacillus subtilis at 100 ug/disk after 24 hr by paper disk diffusion method. Conditions: read-out: IZ.
Experiment [11] has as its system Klebsiella pneumoniae. In words: Antibacterial activity against Klebsiella pneumoniae after 24 hr by agar streak dilution method.
The subject of experiment [12] is Staphylococcus aureus. Briefly: Antibacterial activity against Staphylococcus aureus at 100 ug/disc after 24 hr by paper disk diffusion method. Conditions: read-out: IZ.
In experiment [13] the test system is Aspergillus fumigatus. In words: Antifungal activity against Aspergillus fumigatus after 48 hr by agar streak dilution method.
For experiment [14], the system named is Candida albicans. Briefly: Antifungal activity against Candida albicans after 48 hr by agar streak dilution method.
For experiment [15], the system named is Pseudomonas aeruginosa. In words: Antibacterial activity against Pseudomonas aeruginosa at 100 ug/disk after 24 hr by paper disk diffusion method. The note with it: read-out: IZ.
Experiment [16] relates to Pseudomonas aeruginosa. In words: Antibacterial activity against Pseudomonas aeruginosa after 24 hr by agar streak dilution method.
Experiment [17] deals with Salmonella typhi. In words: Antibacterial activity against Salmonella enterica subsp. enterica serovar Typhi at 100 ug/disk after 24 hr by paper disk diffusion method. Conditions: read-out: IZ.
For experiment [18], the system named is Klebsiella pneumoniae. Briefly: Antibacterial activity against Klebsiella pneumoniae at 100 ug/disk after 24 hr by paper disk diffusion method. The note with it: read-out: IZ.
Experiment [19] deals with Aspergillus niger. Briefly: Antifungal activity against Aspergillus niger at 100 ug/disk after 48 hr by paper disk diffusion method. Conditions: read-out: IZ.
The subject of experiment [20] is Aspergillus fumigatus. In words: Antifungal activity against Aspergillus fumigatus at 100 ug/disc after 48 hr by paper disk diffusion method. Conditions: read-out: IZ.
Experiment [21] has as its system Escherichia coli. Briefly: Antibacterial activity against Escherichia coli at 100 ug/disk after 24 hr by paper disk diffusion method. Conditions: read-out: IZ.
For experiment [22], the system named is Bacillus subtilis. In words: Antibacterial activity against Bacillus subtilis after 24 hr by agar streak dilution method.
In experiment [23] the test system is Candida albicans. Briefly: Antifungal activity against Candida albicans at 100 ug/disk after 48 hr by paper disk diffusion method. Conditions: read-out: IZ.
In experiment [24] the test system is Escherichia coli. Briefly: Antibacterial activity against Escherichia coli after 24 hr by agar streak dilution method.

In brackets after ≈: the same amount, converted by molar mass.

Data on four molecules can be found in ChEMBL document CHEMBL3046897, “Synthesis of 3-{4-[4-dimethylamino-6-(4-methyl-2-oxo-2H-chromen-7-yloxy)-[1,3,5]triazin-2-ylamino]-phenyl}-2-phenyl-5-(4-pyridin-2-yl-piperazin-1-ylmethyl)-thiazolidin-4-one and their biological evaluation” (2012).

One may read the MIC as the lowest concentration that inhibits growth of the organism. As to `Cc1cc(=O)oc2cc(Oc3nc(Nc4ccc(/N=C/c5ccc(Cl)cc5)cc4)nc(N(C)C)n3)ccc12`, the zone of inhibition at 100 µg/disc in experiment [1] came out at 17 mm; in experiment [3], 21 mm; in experiment [9] it was 18 mm; in experiment [10] it was 14 mm; in [12], 17 mm; in experiment [15], 11 mm. Besides, the zone of inhibition at 100 µg/disc in experiment [17] was 19 mm; in experiment [18] it was 15 mm; in experiment [19], 12 mm; in [20], 16 mm; in experiment [21], 16 mm; in experiment [23], 18 mm. The MIC in [2] is 25 µg/mL (≈ 47.4 µM); in experiment [4] it was 25 µg/mL (≈ 47.4 µM); in experiment [5], 100 µg/mL (≈ 190 µM); in experiment [6] it was 50 µg/mL (≈ 94.9 µM); in experiment [7], 50 µg/mL (≈ 94.9 µM); in experiment [8], 50 µg/mL (≈ 94.9 µM). Also, the MIC turned out to be 100 µg/mL (≈ 190 µM) in experiment [11]; 50 µg/mL (≈ 94.9 µM) in experiment [13]; 50 µg/mL (≈ 94.9 µM) in experiment [14]; 100 µg/mL (≈ 190 µM) in [16]; 100 µg/mL (≈ 190 µM) in experiment [22]; 100 µg/mL (≈ 190 µM) in experiment [24].

For `Cc1cc(=O)oc2cc(Oc3nc(Nc4ccc(N5C(=O)CSC5c5ccc([N+](=O)[O-])cc5)cc4)nc(N(C)C)n3)ccc12` (stereo unspecified), the zone of inhibition at 100 µg/disc is less than 10 mm in experiment [1]; 11 mm in experiment [3]; 17 mm in experiment [9]; 11 mm in [10]; 13 mm in experiment [12]; 11 mm in [15]. For the same molecule, the zone of inhibition at 100 µg/disc was 16 mm in experiment [17]; 12 mm in [18]; 12 mm in experiment [19]; 13 mm in experiment [20]; 13 mm in experiment [21]; less than 10 mm in experiment [23]. Besides, the MIC in experiment [2], in [4], in experiment [5], in experiment [6], in experiment [7] and in experiment [8] was 100 µg/mL (≈ 163 µM) each time. For the same molecule, the MIC in experiment [11], in [13], in experiment [14], in [16], in experiment [22] and in experiment [24] was 100 µg/mL (≈ 163 µM) each time.

As for `O=C(O)c1cn(C2CC2)c2cc(N3CCNCC3)c(F)cc2c1=O` [CIPROFLOXACIN], the zone of inhibition at 100 µg/disc was determined as 31 mm in experiment [1]; 32 mm in experiment [3]; 31 mm in [10]; 30 mm in experiment [12]; 33 mm in experiment [15]; 30 mm in experiment [17]. Also, the zone of inhibition at 100 µg/disc in experiment [18] is 33 mm; in [21], 32 mm. In addition, the minimum inhibitory concentration (MIC) was not above 3 µg/mL in [2]; 1 µg/mL (≈ 3.02 µM) in experiment [4]; 1 µg/mL (≈ 3.02 µM) in experiment [6]; 1 µg/mL (≈ 3.02 µM) in experiment [8]; 1 µg/mL (≈ 3.02 µM) in experiment [11]; 1 µg/mL (≈ 3.02 µM) in [16]. Besides, in experiment [22], the MIC was determined as 1 µg/mL (≈ 3.02 µM).

Turning to `CC(=O)N1CCN(c2ccc(OCC3COC(Cn4ccnc4)(c4ccc(Cl)cc4Cl)O3)cc2)CC1` (stereo unspecified) [KETOCONAZOLE], the MIC was not above 3 µg/mL in [5], 1 µg/mL (≈ 1.88 µM) in [7], 1 µg/mL (≈ 1.88 µM) in [13] and 1 µg/mL (≈ 1.88 µM) in experiment [14]. In addition, the zone of inhibition at 100 µg/disc in experiment [9] came to 31 mm; in [19], 30 mm; in experiment [20], 29 mm; in experiment [23], 33 mm.
